Data: US8658675B2, “Pyridin-4-yl derivatives” (Actelion Pharmaceuticals Ltd., priority 2009, dated 2014)

Assays:
rat trachea rings = experiment: Measurement of isometric force development: rat trachea ring constriction; set-up: species or system Female Wistar rats; settings: for % trachea constriction at 1 μM: compound at 1 μM, in % of the constriction induced by 50 mM KCl
Procedure: Animals were obtained from RCC Ltd (Füllinsdorf, Switzerland). Female Wistar rats were euthanized by exposure to CO2. The tracheae were excised and rings from the lower segments were prepared. Rings of trachea were suspended in tissue baths (10 mL) containing Krebs-Henseleit buffer of the following composition (mM): NaCl 115; KCl 4.7; MgSO4 1.2; KH2PO4 1.5; CaCl2 2.5; NaHCO3 25; glucose 10. Bathing solution was maintained at 37° C. and aerated with 95% O2/5% CO2 (pH 7.4). A resting force of 2 g (20 mN) was applied to the ring preparation, and changes in force generation were measured using an isometric force recorder (EMKA Technologies Inc, Paris, France). Viability of rings was assessed by exposure to a depolarizing concentration of KCl (50 mM). Contraction of trachea was expressed as a percentage of the response to KCl.
All compounds were prepared as stock solutions of 0.3 mM in pure DMSO. Compounds were added to the bath (10 mL) in a volume of 33 μL to give a final bath concentration of DMSO of 0.33%.
Contraction of trachea was measured for 15 out of 30 exemplified compounds.

circulating lymphocytes = experiment: Assessment of in vivo efficacy: circulating lymphocytes after oral administration; set-up: species or system normotensive male Wistar rats; settings: Rattus norvegicus, Lymphocyte; 6 h after oral administration of 10 mg/kg, male Wistar rats, compared to vehicle group; read-out: Lymphocyte counts
Procedure: The efficacy of the compounds of Formula (I) is assessed by measuring the circulating lymphocytes after oral administration of 3 to 30 mg/kg of a compound of Formula (I) to normotensive male Wistar rats. The animals are housed in climate-controlled conditions with a 12 h-light/dark cycle, and have free access to normal rat chow and drinking water. Blood is collected before and 3, 6 and 24 h after drug administration. Full blood is subjected to hematology using Advia Hematology system (Bayer Diagnostics, Zurich, Switzerland).
All data are presented as mean±SEM. Statistical analyses are performed by analysis of variance (ANOVA) using Statistica (StatSoft) and the Student-Newman-Keuls procedure for multiple comparisons. The null hypothesis is rejected when p<0.05.
Lymphocyte counts 6 h after oral administration have been measured for 23 out of 30 exemplified compounds and are in the range of −42% to −80% with an average of −63%.

human S1P1 receptor = human S1P1 receptor (Homo sapiens, UniProt P21453); experiment: GTPγS assay to determine EC50 values; format: biochemical; settings: membranes of CHO cells expressing recombinant human S1P1 receptor; 35S-GTPγS binding
Procedure: GTPγS binding assays are performed in 96 well microtiter plates (Nunc, 442587) in a final volume of 200 μl, using membrane preparations of CHO cells expressing recombinant human S1P1 receptor. Assay conditions are 20 mM Hepes (Fluka, 54461), 100 mM NaCl (Fluka, 71378), 5 mM MgCl2 (Fluka, 63064), 0.1% BSA (Calbiochem, 126609), 1 μM GDP (Sigma, G-7127), 2.5% DMSO (Fluka, 41644), […] ^35S-GTPγS (Amersham Biosciences, SJ1320). The pH is 7.4. Test compounds are dissolved and diluted in 100% DMSO and pre-incubated at room temperature for 30 min in 150 μl of the above assay buffer, in the absence of ^35S-GTPγS. After addition of 50 μl of ^35S-GTPγS, the assay is incubated for 1 h at rt. The assay is terminated by transfer of the reaction mixture to a Multiscreen plate (Millipore, MAHFC1H60) using a cell harvester from Packard Biosciences, and the plates are washed with ice-cold 10 mM Na2HPO4/NaH2PO4 (70%/30%), dried, sealed at the bottom and, after addition of 25 μl MicroScint20 (Packard Biosciences, order#6013621), sealed on the top. Membrane-bound ^35S-GTPγS is measured with a TopCount from Packard Biosciences.
EC50 is the concentration of agonist inducing 50% of the maximal specific ^35S-GTPγS binding. Specific binding is determined by subtracting non-specific binding from maximal binding. Maximal binding is the amount of cpm bound to the Multiscreen plate in the presence of 10 μM of S1P. Non-specific binding is the amount of binding in the absence of an agonist in the assay.
Agonistic activities (EC50 values) of all exemplified compounds have been measured.

Chain of human S1P1 receptor (P21453 whole entry): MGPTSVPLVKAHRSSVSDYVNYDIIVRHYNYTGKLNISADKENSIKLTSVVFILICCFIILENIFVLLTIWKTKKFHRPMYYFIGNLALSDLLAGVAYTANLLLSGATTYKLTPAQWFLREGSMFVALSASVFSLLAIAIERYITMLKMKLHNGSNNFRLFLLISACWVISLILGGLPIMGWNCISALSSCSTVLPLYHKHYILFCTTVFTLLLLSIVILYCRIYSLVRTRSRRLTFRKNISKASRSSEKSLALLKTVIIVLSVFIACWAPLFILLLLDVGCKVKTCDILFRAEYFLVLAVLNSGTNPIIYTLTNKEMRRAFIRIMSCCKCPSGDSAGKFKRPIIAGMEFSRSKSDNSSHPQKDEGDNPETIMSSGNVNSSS

% trachea constriction at 1 μM (rat trachea rings) [%]	EC50 (human S1P1 receptor) [nM]	Structure (SMILES)	change in vivo at 10 mg/kg (circulating lymphocytes) [%]	potential to constrict rat trachea rings (comparison in words) (rat trachea rings; compared to closest prior art analogues of WO 2008/029371 or to Example 2)
53	1.9	CCc1cc(-c2nnc(-c3cc(OC)nc(C4CCCC4)c3)o2)cc(C)c1OC[C@@H](O)CO [Example 25, (S)-3-{4-[5-(2-Cyclopentyl-6-methoxy-pyridin-4-yl)-[1,3,4]oxadiazol-2-yl]-2-ethyl-6-methyl-phenoxy}-propane-1,2-diol]	-51	–
–	1.2	CCC(CC)c1cc(-c2nc(-c3cc(C)c(NS(C)(=O)=O)c(Cl)c3)no2)cc(OC)n1 [Example 11, N-(2-Chloro-4-{5-[2-(1-ethyl-propyl)-6-methoxy-pyridin-4-yl]-[1,2,4]oxadiazol-3-yl}-6-methyl-phenyl)-methanesulfonamide]	-74	–
<5	0.7	CCc1cc(-c2nc(-c3cc(OC)nc(C4CCCC4)c3)no2)cc(C)c1OC[C@@H](O)CO [Example 21, (S)-3-{4-[3-(2-Cyclopentyl-6-methoxy-pyridin-4-yl)-[1,2,4]oxadiazol-5-yl]-2-ethyl-6-methyl-phenoxy}-propane-1,2-diol]	-62	same low potential to constrict rat trachea rings
–	1.8	CCS(=O)(=O)Nc1c(C)cc(-c2noc(-c3cc(OC)nc(C4CCCC4)c3)n2)cc1Cl [Example 5, Ethanesulfonic acid {2-chloro-4-[5-(2-cyclopentyl-6-methoxy-pyridin-4-yl)-[1,2,4]oxadiazol-3-yl]-6-methyl-phenyl}-amide]	-66	–
–	17.8	CCc1cc(-c2noc(-c3cc(OC)nc(C(CC)CC)c3)n2)cc(C)c1OC[C@@H](O)CN(C)C(=O)CO [Example 9, N-[(2S)-3-(2-Ethyl-4-{5-[2-(1-ethyl-propyl)-6-methoxy-pyridin-4-yl]-[1,2,4]oxadiazol-3-yl}-6-methyl-phenoxy)-2-hydroxy-propyl]-2-hydroxy-N-methyl-acetamide]	–	–
–	4	CCc1cc(-c2nnc(-c3cc(OC)nc(C4CCCC4)c3)o2)cc(C)c1OC[C@H](O)CO [Example 26, (R)-3-{4-[5-(2-Cyclopentyl-6-methoxy-pyridin-4-yl)-[1,3,4]oxadiazol-2-yl]-2-ethyl-6-methyl-phenoxy}-propane-1,2-diol]	–	–
<5	10.8	CCc1cc(-c2noc(-c3cc(OC)nc(C4CCCCC4)c3)n2)cc(C)c1OC[C@@H](O)CNC(=O)CO [Example 8, N-((2S)-3-{4-[5-(2-Cyclohexyl-6-methoxy-pyridin-4-yl)-[1,2,4]oxadiazol-3-yl]-2-ethyl-6-methyl-phenoxy}-2-hydroxy-propyl)-2-hydroxy-acetamide]	-58	–
–	1.1	COc1cc(-c2nc(-c3cc(C)c(OC[C@@H](O)CNC(=O)CO)c(Cl)c3)no2)cc(C2CCCC2)n1 [Example 14, N-((2S)-3-{2-Chloro-4-[5-(2-cyclopentyl-6-methoxy-pyridin-4-yl)-[1,2,4]oxadiazol-3-yl]-6-methyl-phenoxy}-2-hydroxy-propyl)-2-hydroxy-acetamide]	-70	–
–	1.6	CCc1cc(-c2nc(-c3cc(OC)nc(C4CCCC4)c3)no2)cc(C)c1OC[C@H](O)CNC(=O)CO [Example 24, N-((2R)-3-{4-[3-(2-Cyclopentyl-6-methoxy-pyridin-4-yl)-[1,2,4]oxadiazol-5-yl]-2-ethyl-6-methyl-phenoxy}-2-hydroxy-propyl)-2-hydroxy-acetamide]	–	–
<5	1	COc1cc(-c2nc(-c3cc(C)c(OC[C@@H](O)CO)c(Cl)c3)no2)cc(C2CCCC2)n1 [Example 13, (S)-3-{2-Chloro-4-[5-(2-cyclopentyl-6-methoxy-pyridin-4-yl)-[1,2,4]oxadiazol-3-yl]-6-methyl-phenoxy}-propane-1,2-diol]	-60	–
–	10.2	COc1cc(-c2nc(-c3cc(C)c(NS(C)(=O)=O)c(Cl)c3)no2)cc(C2CCCCC2)n1 [Example 17, N-{2-Chloro-4-[5-(2-cyclohexyl-6-methoxy-pyridin-4-yl)-[1,2,4]oxadiazol-3-yl]-6-methyl-phenyl}-methanesulfonamide]	-80	–
–	1	CCc1cc(-c2nc(-c3cc(OC)nc(C4CCCC4)c3)no2)cc(C)c1OC[C@H](O)CO [Example 22, (R)-3-{4-[3-(2-Cyclopentyl-6-methoxy-pyridin-4-yl)-[1,2,4]oxadiazol-5-yl]-2-ethyl-6-methyl-phenoxy}-propane-1,2-diol]	–	–
–	7.5	CCc1cc(-c2noc(-c3cc(CCC(C)C)nc(OC)c3)n2)cc(C)c1OC[C@@H](O)CO [Example 15, (S)-3-(2-Ethyl-4-{5-[2-methoxy-6-(3-methyl-butyl)-pyridin-4-yl]-[1,2,4]oxadiazol-3-yl}-6-methyl-phenoxy)-propane-1,2-diol]	–	–
<5	6.4	CCc1cc(-c2noc(-c3cc(OC)nc(C4CCCCC4)c3)n2)cc(C)c1OC[C@@H](O)CO [Example 4, (S)-3-{4-[5-(2-Cyclohexyl-6-methoxy-pyridin-4-yl)-[1,2,4]oxadiazol-3-yl]-2-ethyl-6-methyl-phenoxy}-propane-1,2-diol]	-61	–
–	4.2	CCc1cc(-c2noc(-c3cc(OC)nc(C4CCCCC4)c3)n2)cc(C)c1NS(C)(=O)=O [Example 20, N-{4-[5-(2-Cyclohexyl-6-methoxy-pyridin-4-yl)-[1,2,4]oxadiazol-3-yl]-2-ethyl-6-methyl-phenyl}-methanesulfonamide]	-67	–
–	2.3	CCc1cc(-c2nnc(-c3cc(OC)nc(C4CCCC4)c3)o2)cc(C)c1OC[C@H](O)CNC(=O)CO [Example 28, N-((2R)-3-{4-[5-(2-Cyclopentyl-6-methoxy-pyridin-4-yl)-[1,3,4]oxadiazol-2-yl]-2-ethyl-6-methyl-phenoxy}-2-hydroxy-propyl)-2-hydroxy-acetamide]	–	–
–	1.7	CCc1cc(-c2nnc(-c3cc(OC)nc(C4CCCC4)c3)o2)cc(C)c1OC[C@@H](O)CNC(=O)CO [Example 27, N-((2S)-3-{4-[5-(2-Cyclopentyl-6-methoxy-pyridin-4-yl)-[1,3,4]oxadiazol-2-yl]-2-ethyl-6-methyl-phenoxy}-2-hydroxy-propyl)-2-hydroxy-acetamide]	-54	–
–	0.4	CCc1cc(-c2nc(-c3cc(OC)nc(C4CCCC4)c3)no2)cc(C)c1OC[C@@H](O)CNC(=O)CO [Example 23, N-((2S)-3-{4-[3-(2-Cyclopentyl-6-methoxy-pyridin-4-yl)-[1,2,4]oxadiazol-5-yl]-2-ethyl-6-methyl-phenoxy}-2-hydroxy-propyl)-2-hydroxy-acetamide]	-56	–
–	4	COc1cc(-c2nc(-c3cc(C)c(OC[C@@H](O)CO)c(Cl)c3)no2)cc(C2CCCCC2)n1 [Example 29, (S)-3-{2-Chloro-4-[5-(2-cyclohexyl-6-methoxy-pyridin-4-yl)-[1,2,4]oxadiazol-3-yl]-6-methyl-phenoxy}-propane-1,2-diol]	-62	–
–	5.6	CCc1cc(-c2noc(-c3cc(CCC(C)C)nc(OC)c3)n2)cc(C)c1NS(C)(=O)=O [Example 30, N-(2-Ethyl-4-(5-(2-isopentyl-6-methoxypyridin-4-yl)-1,2,4-oxadiazol-3-yl)-6-methylphenyl)methanesulfonamide]	–	–
